# Molecular target: Muscarinic acetylcholine receptor
# Assay: Ability (10 ug/kg) to inhibit binding of [125I]iododexetimide to muscarinic receptor in mice
# Conditions: not given
row,Compound,IC50 [nM]
1,Cl.O=C1CCC(c2ccccc2)(C2CCN(Cc3ccccc3)CC2)C(=O)N1 (configuration not stated) [BENZETIMIDE HYDROCHLORIDE],8900
2,O=C1CC[C@@](c2ccccc2)(C2CCN(Cc3ccccc3)CC2)C(=O)N1 [DEXETIMIDE],3.3

# Molecular target: Muscarinic acetylcholine receptor
# Assay: Displacement of [3H]N-methylscopolamine from rat brain homogenate
# Assay type: tissue-based
# Conditions: not given
row,Compound,IC50 [nM]
1,O=C1CCC(c2ccccc2)(C2CCN(Cc3ccc(Br)cc3)CC2)C(=O)N1 (configuration not stated),38
2,O=C1CCC(c2ccccc2)(C2CCN(Cc3ccccc3F)CC2)C(=O)N1 (configuration not stated),32
3,O=C1CCC(c2ccccc2)(C2CCN(Cc3ccccc3Br)CC2)C(=O)N1 (configuration not stated),500
4,O=C1CCC(c2ccccc2)(C2CCN(Cc3ccc(I)cc3)CC2)C(=O)N1 (configuration not stated),17
5,O=C1CCC(c2ccccc2)(C2CCN(Cc3ccc(F)cc3)CC2)C(=O)N1 (configuration not stated),98
6,O=C1CCC(c2ccccc2)(C2CCN(Cc3ccccc3I)CC2)C(=O)N1 (configuration not stated),500
7,O=C1CCC(c2ccccc2)(C2CCN(Cc3ccccc3Cl)CC2)C(=O)N1 (configuration not stated),460
8,O=C1CCC(c2ccccc2)(C2CCN(Cc3ccccc3)CC2)C(=O)N1 (configuration not stated) [BENZETIMIDE],15

# Other lines, results leading:
row,IC50 [nM],Compound
1,21,O=C1CCC(c2ccccc2)(C2CCN(Cc3cccc(F)c3)CC2)C(=O)N1 (configuration not stated)
2,27,O=C1CCC(c2ccccc2)(C2CCN(Cc3ccc(Cl)cc3)CC2)C(=O)N1 (configuration not stated)
3,22,O=C1CCC(c2ccccc2)(C2CCN(Cc3cccc(I)c3)CC2)C(=O)N1 (configuration not stated)
4,24,O=C1CCC(c2ccccc2)(C2CCN(Cc3cccc(Br)c3)CC2)C(=O)N1 (configuration not stated)
5,26,O=C1CCC(c2ccccc2)(C2CCN(Cc3cccc(Cl)c3)CC2)C(=O)N1 (configuration not stated)

# Test system: not listed separately
# Assay: Ability (10 ug/kg) to inhibit binding of [125I]iododexetimide to 5-hydroxytryptamine receptor in mice
# Conditions: Mus musculus
row,IC50 [nM],Compound
1,130000,O=C(c1ccc(F)cc1)C1CCN(CCn2c(=O)[nH]c3ccccc3c2=O)CC1 [KETANSERIN]

# Test system: not listed separately
# Assay: Ability (10 ug/kg) to inhibit binding of [125I]iododexetimide to adrenergic receptor in mice
# Conditions: not given
row,IC50 [nM],Compound
1,13000,COc1cc2nc(N3CCN(C(=O)c4ccco4)CC3)nc(N)c2cc1OC [PRAZOSIN]
